The values that follow come from patent publication US8383626B2, “Nitric oxide donors for inducing neurogenesis” (Henry Ford Health System, priority 1999, dated 2013).

Common to all, as to format: in vivo, rat
Experiment [1] concerns newly formed cells (BrdU) in the subventricular zone and the dentate gyrus. Put plainly: BrdU-positive newly formed cells in rats after embolic MCA occlusion treated with DETANONO
The procedure:
A pharmacological method to promote neurogenesis in brain was developed. Male Wistar rats were subjected to middle cerebral artery (MCA) occlusion by means of intraarterial placement of a clot at the origin of the right MCA. Animals were administered (iv/ip) nitric oxide donor compounds (DETANONO) after induction of stroke, at 24 and 48 hours (Group 1), or at 24 hours followed by daily injection (ip) of NO donor compound (Group 2). BrdU, a thymidine analog which identifies the formation of new cells, was injected (ip) daily over a period of 14 days from the onset of ischemia. Identification of cell type was determined by labeling immunoreactivity of specific cell proteins. Thus, neurons were identified by expression of NeuN, MAP2 and the astrocytes formed by GFAP. Measurements of neurogenesis were performed within specific regions of brain, the subventricular zone and the dentate gyrus.

The test system is the same in experiment [2]. Briefly: BrdU-positive newly formed cells in non-ischemic rats after single dose of DETANONO
The method, then:
Treatment of non-ischemic brain with DETANONO: Rats not subjected to any surgical procedures were treated with DETANONO. The drug was administered as a single dose (iv 0.12 mg). BrdU was injected daily for 14 days after treatment. One population (Group 3) of rats was sacrificed on the last day of BrdU injection, Another population (Group 4) was sacrificed at four weeks after the last BrdU injection. Animals which were not administered DETA-NONO were given BrdU with the identical protocol as that for the DETA-NONO treated rats (Group 5).

Experiment [3] has as its system neuronal progenitor cells in the SVZ and in the dentate gyrus. Put plainly: Proliferation of neuronal progenitor cells (BrdU immunoreactive cells) in ischemic adult rats (embolic MCA occlusion). The method, then:
Two experiments were performed. In the first experiment, the effects of NO on the proliferation of neuronal progenitor cells in the SVZ and the dentate gyrus of non ischemic adult rats were examined. In the second experiment, the effects of NO on the proliferation of neuronal progenitor cells in the SVZ and in the dentate gyrus of ischemic adult rats were examined.
Based on above data, a second experiment was performed to explore NO effects on focal embolic cerebral ischemic brain. All procedures were the same as in the first experiment except for the following procedures.
(§1) Male Wistar rats (n=30) weighing 300-350 g were subjected to middle cerebral artery (MCA) occlusion. The MCA was occluded by placement of an embolus at the origin of the MCA. Briefly, a single intact fibrin rich 24 hour old homologous clot (about 1 μl) was placed at the origin of the MCA via a fifteen mm length of modified PE-50 catheter. The experimental protocol consisted of four groups. In Group I (control group), rats were subjected to MCA occlusion and received four consecutive intravenous bolus doses of saline (0.52 ml each, every fifteen minutes) at 24 hours after ischemia. Group II (DETNO/NO precondition) rats received four consecutive intravenous bolus doses of DETANONO (0.1 mg/kg each, every fifteen minutes, and total dose 0.4 mg/kg) at 24 hours before embolization. Group III (DETANONO two set group), animals received consecutive intravenous bolus doses of DETANONO (0.1 mg/kg each, every fifteen minutes and total dose 0.4 mg/kg) at 24 and 48 hours after occlusion. Group IV (DETANONO seven set group), animals received four consecutive intravenous bolus doses of DETANONO (0.1 mg/kg each, every fifteen minutes and total dose 0.4 mg/kg) at 24 hours after embolization. Subsequently, rats were intraperitoneally injected with DETA/NO at 0.4 mg/kg every day for six consecutive days.

Experiment [4] has as its system focal embolic cerebral ischemic brain. Put plainly: Ischemic lesion volume after embolic MCA occlusion. As to conditions: ischemic rats. The procedure: as §1
Experiment [5] relates to ischemic rats (stroke). Briefly: Battery of neurological functional tests (NSS, Rotarod, footfault, adhesive removal, body weight) after stroke. The procedure: Administration of nitric oxide donor compound (DETA/NO) to normal and ischemic rats promotes neurogenesis in non-ischemic and ischemic brains. Since then, additional experiments have been performed to test the hypothesis that neurogenesis induced by DETA/NO promotes functional improvement after stroke; the data is provided herewith. Animals were administered (iv/ip) DETA/NO at one day (Group 1) or seven days (Group 2) after induction of stroke and followed by daily injection (ip) of DETA/NO over a period of seven days. Another NO donor compound (SNAP) was administered (iv) to ischemic rats at one day and two days after stroke (Group 3). Young (3 month old) rats were used in Groups 1 and 2. Middle aged rats (10 to 12 months old) were used in Group 3. A battery of neurological functional tests were measured from two days to forty-two days after stroke. These tests included 1) Neurological severity score (NSS) which measures motor, sensory and reflex functions and is similar to the contralateral neglect testing described in humans. The higher the score, the more severe the injury; 2) Rotarod test measures fore and hindlimb motor coordination and balance. Data are presented as percentage of baseline values; 3) Footfault test measures fore and hindlimb motor coordination. The higher the number, the more severe the injury; 4) Adhesive removal test measures sensorimotor impairments. Data are presented as time (seconds). The longer the time period, the more severe the injury; 5) Animal body weight.

Several values for one entry are separate records, joined by “and”; a condition that tells them apart may be missing. Equal values may be shown once. Bounds are passed on as bounds.

Regarding `NCCN(CCN)/[N+]([O-])=N/O` [DETANONO, DETANONOate], the “BrdU cells in the granule cell layer” value in experiment [1] (Group 1: treated at 24 and 48 hours after stroke, non-treated 37.3±3.6) was found to be 89.5±12. In addition, the “numbers of BrdU positive cells, subventricular zone” value in experiment [1] (Group 2: 24 h after stroke then daily ip, BrdU daily 14 days, untreated 1653±91.4) was found to be 2748±326. Besides, in experiment [1] (Group 2: 24 h after stroke then daily ip, untreated 37.3±3.6), the “numbers of BrdU positive cells, dentate gyrus granule cell layer” value is 135±18.9. Further, in experiment [1] (Group 2, untreated 10.1±2.4), the “numbers of BrdU positive cells, dentate gyrus hilus” value is on record as 43.8±10.2. The “numbers of BrdU positive cells, dentate gyrus (second pair of values, area not named)” value in experiment [1] (Group 2, untreated 34.9±2.8) was 53.7±6.3. Besides, in experiment [1] (ischemic rats), the “newly formed cells within the dentate gyrus that were neurons” value is reported as > 90%. Moreover, the “newly formed cells within the hippocampus of neuronal phenotype” value in experiment [1] (rats treated with DETANONO and subjected to strokes, estimated) is given as “more than 90%”. Further, in experiment [2] (Group 3: single dose iv 0.12 mg, sacrificed on last day of BrdU injection, Group 5 controls 1432.6±104.6, 1655.2±102.9, in cells/mm2), the “BrdU cells, subventricular zones (two values, sides not given)” value was 2952±102.6 and 2725.3±115.5. For the same compound, the “BrdU cells, dentate gyrus (granule cell layer)” value in experiment [2] (Group 3, Group 5 control 39.9±7.26) came to 73.7±8.11. Also, the “BrdU cells, subventricular zone (two values, sides not given)” value in experiment [2] (Group 4: single dose iv 0.12 mg, sacrificed four weeks after last BrdU injection, controls 214.6±67.9, 233.1±49.2, in cells/mm2) was 456.5±42.3 and 518.4±67.2. In addition, the “BrdU immunoreactive cells in the OB” value in experiment [3] (ischemic rats, 14 days and 42 days after MCA occlusion) is “Significant increases”. Also, the “BrdU immunoreactive cells in dentate gyrus” value in experiment [3] (ischemic rats, 14 days and 42 days, vs MCA occlusion group) was “significant increases”. In addition, the “numbers of BrdU immunoreactive cells in the SVZ” value in experiment [3] (preconditioned group (24 hours before embolization), contralateral SVZ at 14 days, both SVZs at 42 days, vs non-treated MCA occlusion) is recorded as “Significant (p<0.05) increases”; in experiment [3] (two dosage group (24 and 48 hours after occlusion), ipsilateral SVZ at 14 days, both SVZ at 42 days), “significant increase”. The “BrdU immunoreactive cells in the SVZ” value in experiment [3] (seven sets, contralateral and ipsilateral SVZ at 14 days and 42 days after MCA occlusion) is reported as “significant increases”. In experiment [4], the ischemic lesion volume result is recorded as “did not exhibit a significant reduction”. The animal body weight entry in experiment [5] (Group 1: from one day after stroke, daily ip over seven days, vs control) is “Significant improvements”. The “motor and sensorimotor functions (Rotarod, Adhesive Removal, NSS tests)” value in experiment [5] (Group 1: from one day after stroke, daily ip over seven days, young rats, vs control) is “Significant improvements”. Further, the “neurological function, Rotarod test” value in experiment [5] (Group 2: from seven days after stroke, at 28 and 42 days after stroke, only this test) is listed as “significant improvement”.
